Results: publication PMC6698794, “Catalytic Knockdown of miR-21 by Artificial Ribonuclease: Biological Performance in Tumor Model” (Frontiers in Pharmacology, 2019)

Legend:
miR-21 = miR-21 level in transfected RLS40 cells by PCR analysis; type: cell-based, mouse
Method: (§1) RLS40 ascites were taken from CBA mice intraperitoneally injected with tumor cells (2 × 10^6 in 0.2 ml buffered saline) into their abdominal cavities. RLS40 cells, isolated from ascites fluid by filtration through LSM were divided into seven portions: 1) untreated cells; 2) the cells incubated with Lipofectamine; the cells transfected with 1 µM of 3) h-ODN, 4) 2′-OMe, 5) Inh, 6) miR-21-miRNase, or 7) luc-POC each. After 4 h of transfection, cell suspensions (0.1 ml, 2 × 10^6 cells) were intramuscularly inoculated into the right lower limb of CBA mice for solid tumor development. As soon as tumors began to be palpable, the tumor volumes were measured every 2–3 days using calipers. Tumor volumes were calculated as V = (π/6 × length × width × height). Hepatic index was estimated as (liver weight/mouse weight) × 100% and as 5.0% for healthy CBA mice. Tumor doubling time (DT) was estimated as DT = (t − t0) × ln 2/(ln V − ln V0), where (t − t0) indicates the length of time between two measurements of tumor size and V0 and V denote the tumor volume at two points of the measurement ([Ozono et al., 2004]).
(§2) Supplementary Figure 3. Expression level of miR-21 and PTEN and PDCD4 protein level in RLS40 cells after transfection with 1 µM of luc-POC or miR-21-miRNase using LipofectamineTM 2000. (A) Expression level of miR-21 24 h after transfection. The expression of miRNAs was normalized to U6. […]

PDCD4 = PDCD4 protein level in transfected RLS40 cells by Western blot; type: cell-based, mouse; settings: 1 µM, 72 h after transfection, GAPDH internal control
Method: as §1, §2

lymphosarcoma cells = settings: ref Patutina et al., 2017a; cited from earlier work
Text: Short functional non-coding microRNAs are implicated in many types of cancer ([Frixa et al., 2015]; [O’Bryan et al., 2017]; [Zhou et al., 2017]). Amongst many miRNAs identified as important inducers of oncogenesis, miR-21 represents an extreme oncomiR, which is strongly involved in tumor onset and progression for many types of malignancies ([Huang et al., 2013]; [Lianidou et al., 2016]; [Yu et al., 2018]). Since miR-21 is abnormally overexpressed in major types of tumors, this oncomiR is the most considered target for anti-miRNA inhibitory studies. However, depending on the origin of tissue an ...

PTEN = PTEN protein level in transfected RLS40 cells by Western blot; type: cell-based, mouse; settings: 1 µM, 72 h after transfection, GAPDH internal control
Method: as §1, §2

B16 melanoma cells = test: Annexin V-FITC/PI apoptosis assay; type: cell-based, mouse
Method: (§3) B16 cells were pre-seeded (2 × 10^5 per well of 24-well plates) in DMEM/10% FBS a day before transfection. Medium was replaced with serum-free DMEM, prior to incubation for 4 h with h-ODN, 2′-OMe, Inh (hsa-miR-21 5 p inhibitor, Ambion, USA), miR-21-miRNase, or luc-POC, each (0.1 or 1 µM) pre-complexed with Lipofectamine (Thermo Fisher Scientific, USA) in Opti-MEM medium (Thermo Fisher Scientific, USA) according to manufacturer’s instructions, then cells were cultivated in fresh culture standard medium for 24–72 h.
At 24, 48, and 72 h after transfection, cells were harvested, washed twice with PBS, resuspended in Binding Buffer to a density of 2–5 × 10^5/ml, and incubated with annexin V-FITC and propidium iodide (PI) (ab14085, Abcam, UK) in the dark at room temperature for 15 min, prior to flow cytometry analysis (Novocyte CEA Biosciences, USA).
(§4) Figure 2 Biological effect of the miR-21-specific miRNase. (A) Apoptotic profile of B16 melanoma cells after transfection with miR-21-miRNase and control luc-POC. Cytofluorimetric analysis of cells after staining with Annexin V-FITC/PI 48 h after transfection with miRNase or luc-POC (1 µM) in complex with Lipofectamine2000. Q1—population of living cells; Q2—Annexin V-FITC+/PI-, early apoptosis; Q3—Annexin V-FITC+/PI+, late apoptosis; Q4—Annexin V-FITC-/PI+, necrosis. (B) Average percentage of apoptotic (early and late apoptosis) and necrotic B16 cell population. Data represent mean ± s.e. of four independent experiments.(C, D) Invasion activity of B16 cells after incubation with Lipofectamine (LF) alone or treated with either hairpin antisense oligonucleotide (h-ODN), hairpin 2′-OMe oligonucleotide (2′-OMe), commercial miR-21 inhibitor (Inh), miR-21-miRNase, and control conjugate (luc-POC) in the concentration of 1 µM. Migration of cells was recorded in real time using the xCELLigence cell analysis system. Control—B16 cells without treatment. Data represent mean ± s.d. of four independent experiments.

B16 cells = test: In vitro invasiveness assay (xCELLigence, Matrigel-coated CIM-Plates); type: cell-based, mouse; settings: 1 µM with Lipofectamine
Method: as §3
Real-time cell analysis (xCELLigence, ACEABiosciences, USA) used CIM-Plates held at 37°C under an atmosphere of 5% CO2. Top chamber wells were coated with Matrigel (20 µl per well, diluted 1:40 with cold serum-free DMEM) and allowed to polymerize (4 h at 37°C under 5% CO2) prior to cell seeding. Bottom chamber wells were filled with DMEM/10% FBS (160 µl each), prior to assembly of the chambers, when serum-free DMEM was added to the top wells (30 µl each) and equilibrated (1 h at 37°C under 5% CO2). At 4 h after transfection, B16 cells (4 × 10^4) were seeded into each top chamber well in serum-free DMEM and pre-incubated for 30 min at room temperature before monitoring (xCELLigence set to collect impedance data, reported as cell index at least once every 30 min).
as §4

[1] = Nuclease resistance assay in DMEM with 10% fetal bovine serum; type: in vitro ADME; settings: 0.1 µg/µl, DMEM with 10% FBS, 37°C; 12% PAAG/8M urea gel, Stains-All
Method: Oligonucleotides or conjugates (0.1 µg/µl) were incubated at 37°C in Dulbecco’s Modified Eagle Medium (DMEM) (Sigma, USA) with 10% fetal bovine serum (FBS; GE Healthcare, USA). Reactions were quenched in urea (8M) and immediately frozen in liquid nitrogen, prior to analysis of thawed samples in 12% PAAG/8M urea gels, using Tris-Borate-EDTA (TBE) as running buffer, Stains-All (MP Biomedicals, USA) and photographic gel documentation (VilberLourmat, France).

Substance | Decrease in miR-21 level (miR-21; RLS40 cells, 1 µM, 24 h after transfection, normalized to U6) [fold] | Reduction in miR-21 level (miR-21; single treatment of tumor cells prior to transplantation) [%] | Increase in PDCD4 protein level (PDCD4) [fold] | Inhibition of tumor cell proliferation (lymphosarcoma cells) [%] | Increase in PTEN protein level (PTEN) [fold] | Necrosis of melanoma B16 cells (Annexin V-FITC-/PI+) (B16 melanoma cells; 1 µM with Lipofectamine, 24, 48, 72 h after transfection, maximum extent, flow cytometry) | Cells with signs of apoptosis (early and late) (B16 melanoma cells; 1 µM with Lipofectamine, 48 h after transfection (maximum), mean of four independent experiments) [%] | Apoptotic cells relative to intact B16 cells (B16 melanoma cells; 1 µM, 48 h after transfection) | Inhibition of invasion of B16 cells relative to luc-POC (B16 cells; time point 40 h) | Inhibition of invasion of B16 cells relative to control (B16 cells; time point 40 h, four independent experiments) | Migration rate of transfected B16 cells (in words) (B16 cells; compared with Lipofectamine alone) | Survival (intact) in serum-containing medium [1]
acetyl-[(LeuArg)2Gly]2-aminohexyl-AGTCTGATAAGCTACAAGTCAGCGAAAGCTGACTTG [miR-21-miRNase, peptide acetyl-[(LeuArg)2Gly]2 conjugated through aminohexyl linker to 5′-end of miR-21-targeted hairpin oligodeoxyribonucleotide] | 2 | 50 | 2.4 | 50 | 1.7 | up to 7% | 28 | six | about 70% | about 70% |  | 
h-ODN: miR-21-targeted hairpin deoxyribooligonucleotide AGTCTGATAAGCTACAAGTCAGCGAAAGCTGACTTG, unconjugated with the peptide (DNA, backbone and methylation of C not given here; hairpin at 3' end, unconjugated) |  |  |  |  |  |  |  |  |  |  | almost the same rate as cells incubated with Lipofectamine | a few hours
